Molecular target: T1, IRAK4 (Homo sapiens, UniProt Q9NWZ3)
T1 sequence (Q9NWZ3 1-460): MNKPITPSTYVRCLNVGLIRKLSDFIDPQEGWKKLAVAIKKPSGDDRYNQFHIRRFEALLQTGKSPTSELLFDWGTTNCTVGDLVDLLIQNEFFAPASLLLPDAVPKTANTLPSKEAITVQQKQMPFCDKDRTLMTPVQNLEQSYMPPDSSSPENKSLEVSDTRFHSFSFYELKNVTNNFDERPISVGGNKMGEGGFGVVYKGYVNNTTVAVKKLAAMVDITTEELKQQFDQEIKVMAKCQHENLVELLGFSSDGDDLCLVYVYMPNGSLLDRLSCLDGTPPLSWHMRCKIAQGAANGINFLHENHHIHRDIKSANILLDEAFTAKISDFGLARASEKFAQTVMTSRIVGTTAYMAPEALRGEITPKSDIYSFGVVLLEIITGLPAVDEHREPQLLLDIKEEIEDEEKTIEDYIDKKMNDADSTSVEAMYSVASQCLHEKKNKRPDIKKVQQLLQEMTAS
Assay: THP-1 degradation assay (western blot, % IRAK4 degraded after 24 hours)
Type: cell-based
Design: endogenous in cells
Conditions: THP-1 cells
Description: Compounds were reconstituted in DMSO to make stock solutions at concentration of 60 mM. THP-1 and OCI-LY10 cells were maintained in RPMI-1640 medium containing 10% FBS, 0.5 μM 2-ME or 20% FBS, 55 μM 2-ME, and 1% L-Glutamine respectively.
Cells were seeded into 6-well plates with 5e6 cells per well. 200 μL of diluted compounds were added to cells to the final concentration of 0.003-10 μM. After 4 or 24 hour-incubation at 37° C., cells were collected into 2 mL Eppendorf tubes and centrifuged at 1,000 rpm for 5 min. The cell pellets were washed with 1×DPBS once and resuspended in 60 μL lysis buffer. The cells were lysed on ice for 10 min, then centrifuged at 14,000 rpm for 10 min at 4° C. and the supernatants were collected for western blots. For THP-1 cells, the lysis buffer contained 40 mM pH 7.4 HEPES, 140 mM NaCl, 2.5 mM EDTA, 1% NP-40, 0.1% SDS, and protease inhibitor cocktail (Roche, Cat. No. 05892791001). For OCI-LY10 cells, RIPAbuffer (Thermo Fisher, 89900) with Halt Protease and Phosphatase Inhibitor Cocktail (Thermo Fisher, 78446) was applied.
The protein concentration of cell lysates was quantified with Pierce™ BCA Protein Assay Kit (Pierce, 23227). Albumin standards at different concentrations were prepared, involving 2,000 ug/mL, 1,500 ug/mL, 1,000 ug/mL, 750 ug/mL, 500 ug/mL, 250 ug/mL, 125 ug/mL, and 25 ug/mL. BCA working reagents were prepared by mixing BCA reagent A with reagent B in 50:1 ratio. 200 μL of the BCA working reagents were added to 25 μL of BCA standard or cell lysates in microplate, and mixed thoroughly on a plate shaker for 30 seconds. After incubation at 37° C. for 30 min, the absorbance of samples at 562 nm were measured with EnVision Plate Reader.
Protein lysates were prepared in NuPAGE™ LDS sample buffer and NuPAGE™ sample reducing agent, and incubated at 95° C. for 5 min. For western blots, 20-25 μg of total proteins were resolved in 4-12% Bis-Tris gels (Introgen, WG1403A) or 10% Bis-Tris Midi gels (Invitrogen, WG1202BOX) running with 1×MOPS SDS running buffer (Invitrogen, NP0001) or 1×MES SDS running buffer (Invitrogen, NP0002). The proteins were transferred to low fluorescence PVDF membranes using the Trans-Blot Turbo Transfer System. Membranes were then blocked in Odyssey blocking buffer at RT for 1 h followed by primary incubation at 4° C. overnight. The primary antibodies were IRAK1 rabbit monoclonal antibody (CST, #4504S, 1:500), IRAK3 rabbit polyclonal antibody (CST, #4369, 1:500), IRAK4 rabbit polyclonal antibody (CST, #4363S, 1:1,000), MyD88 rabbit monoclonal antibody (Abcam, Ab133739, 1:2,000), j3-actin mouse monoclonal antibody (Sigma, A5441, 10,000), and Gapdh mouse monoclonal antibody (Millipore, MAB374, 1:5,000). Membranes were washed three times with 1×TBST, and then incubated with IR Dye 800 CW Goat anti-rabbit (Licor, #926-32211) and IR Dye 700 CW Goat anti-mouse (Licor, #926-68070) secondary antibodies in 1:10,000 dilution at RT for 1 h. The western blot images were obtained using Odyssey Imaging System.
THP-1 results at 24 hours. The letter codes indicate the percentage of IRAK4 degraded after 24 hours: A (>50% degradation), B (>20-50% degradation) and C (<20% degradation)

THP-1 24 h % IRAK4 Degradation	SMILES
B (>20-50% degradation)	O=C(COc1cccc2c1C(=O)N(C1CCC(=O)NC1=O)C2=O)NCCCCCOCCOCCOCCCCCNC(=O)[C@H]1CC[C@H](NC(=O)c2cnc(Nc3ccc4cnccc4n3)cc2NC2CC2)CC1 (stereo partly drawn) [I-1, 6-((1,6-naphthyridin-2-yl)amino)-4-(cyclopropylamino)-N-((1R,4R)-4-((1-((2-(2,6-dioxopiperidin-3-yl)-1,3-dioxoisoindolin-4-yl)oxy)-2-oxo-9,12,15-trioxa-3-azaicosan-20-yl)carbamoyl)cyclohexyl)nicotinamide]
C (<20% degradation)	O=C(COc1cccc2c1C(=O)N(C1CCC(=O)NC1=O)C2=O)NCCOCCOCCOCCNC(=O)[C@H]1CC[C@H](NC(=O)c2cnc(Nc3ccc4cnccc4n3)cc2NC2CC2)CC1 (some centres unmarked) [I-2]
C (<20% degradation)	O=C(COc1cccc2c1C(=O)N(C1CCC(=O)NC1=O)C2=O)NCCCCCOCCCCCNC(=O)[C@H]1CC[C@H](NC(=O)c2cnc(Nc3ccc4cnccc4n3)cc2NC2CC2)CC1 (some centres unmarked) [I-3]
A (>50% degradation)	O=C(COc1cccc2c1C(=O)N(C1CCC(=O)NC1=O)C2=O)NCCCCCNC(=O)[C@H]1CC[C@H](NC(=O)c2cnc(Nc3ccc4cnccc4n3)cc2NC2CC2)CC1 (some centres unmarked) [I-4]
B (>20-50% degradation)	O=C(COc1cccc2c1C(=O)N(C1CCC(=O)NC1=O)C2=O)NCCCCCOCCOCCCCCNC(=O)[C@H]1CC[C@H](NC(=O)c2cnc(Nc3ccc4cnccc4n3)cc2NC2CC2)CC1 (some centres unmarked) [I-5]
B (>20-50% degradation)	O=C(COc1cccc2c1C(=O)N(C1CCC(=O)NC1=O)C2=O)NCCOCCNC(=O)[C@H]1CC[C@H](NC(=O)c2cnc(Nc3ccc4cnccc4n3)cc2NC2CC2)CC1 (some centres unmarked) [I-6]
B (>20-50% degradation)	O=C(COc1cccc2c1C(=O)N(C1CCC(=O)NC1=O)C2=O)NCCCNC(=O)[C@H]1CC[C@H](NC(=O)c2cnc(Nc3ccc4cnccc4n3)cc2NC2CC2)CC1 (some centres unmarked) [I-7]
C (<20% degradation)	O=C(COc1cccc2c1C(=O)N(C1CCC(=O)NC1=O)C2=O)NCCNC(=O)[C@H]1CC[C@H](NC(=O)c2cnc(Nc3ccc4cnccc4n3)cc2NC2CC2)CC1 (some centres unmarked) [I-8]
C (<20% degradation)	Cc1ncsc1-c1ccc(CNC(=O)[C@@H]2C[C@@H](O)CN2C(=O)[C@H](NC(=O)CCCCCCNC(=O)[C@H]2CC[C@H](NC(=O)c3cnc(Nc4ccc5cnccc5n4)cc3NC3CC3)CC2)C(C)(C)C)cc1 [I-10, 6-((1,6-naphthyridin-2-yl)amino)-4-(cyclopropylamino)-N-((1S,4r)-4-((7-(((S)-1-((2S,4R)-4-hydroxy-2-((4-(4-methylthiazol-5-yl)benzyl)carbamoyl)-pyrrolidin-1-yl)-3,3-dimethyl-1-oxobutan-2-yl)amino)-7-oxoheptyl)carbamoyl)cyclohexyl)-nicotinamide]
C (<20% degradation)	O=C1CCC(N2C(=O)c3cccc(NCCOCCOCCOCCOCCNC(=O)[C@H]4CC[C@H](NC(=O)c5cnc(Nc6ccc7cnccc7n6)cc5NC5CC5)CC4)c3C2=O)C(=O)N1 (some centres unmarked) [I-11]
C (<20% degradation)	Cc1ncsc1-c1ccc(CNC(=O)[C@@H]2C[C@@H](O)CN2C(=O)[C@H](NC(=O)CCCCCCCCCCCNC(=O)[C@H]2CC[C@H](NC(=O)c3cnc(Nc4ccc5cnccc5n4)cc3NC3CC3)CC2)C(C)(C)C)cc1 [I-12]
C (<20% degradation)	Cc1ncsc1-c1ccc(CNC(=O)[C@@H]2C[C@@H](O)CN2C(=O)C(NC(=O)COCCOCCOCCOCCNC(=O)[C@H]2CC[C@H](NC(=O)c3cnc(Nc4ccc5cnccc5n4)cc3NC3CC3)CC2)C(C)(C)C)cc1 (some centres unmarked) [I-13]
C (<20% degradation)	Cc1ncsc1-c1ccc(CNC(=O)[C@@H]2C[C@@H](O)CN2C(=O)[C@H](NC(=O)CCCCCOCCCCCCCNC(=O)[C@H]2CC[C@H](NC(=O)c3cnc(Nc4ccc5cnccc5n4)cc3NC3CC3)CC2)C(C)(C)C)cc1 [I-14]
A (>50% degradation)	Cc1ncsc1-c1ccc(CNC(=O)[C@@H]2C[C@@H](O)CN2C(=O)[C@H](NC(=O)CCCCNC(=O)[C@H]2CC[C@H](NC(=O)c3cnc(Nc4ccc5cnccc5n4)cc3NC3CC3)CC2)C(C)(C)C)cc1 [I-15]
C (<20% degradation)	O=C(COc1cccc2c1C(=O)N(C1CCC(=O)NC1=O)C2=O)NCCOCCOCCNC(=O)[C@H]1C[C@H](NC(=O)c2cnc(Nc3ccc4cnccc4n3)cc2NC2CC2)C1 (some centres unmarked) [I-16]
C (<20% degradation)	O=C(CN1CCC(NC(=O)c2cnc(Nc3ccc4cnccc4n3)cc2NC2CC2)CC1)NCCOCCOCCNc1cccc2c1C(=O)N(C1CCC(=O)NC1=O)C2=O (centres unmarked) [I-19, 6-((1,6-naphthyridin-2-yl)amino)-4-(cyclopropylamino)-N-(1-(2-((2-(2-(2-((2-(2,6-dioxopiperidin-3-yl)-1,3-dioxoisoindolin-4-yl)amino)ethoxy)ethoxy)ethyl)amino)-2-oxoethyl)piperidin-4-yl)nicotinamide]
B (>20-50% degradation)	O=C1CCC(N2C(=O)c3cccc(NCCOCCNC(=O)[C@H]4CC[C@H](NC(=O)c5cnc(Nc6ccc7cnccc7n6)cc5NC5CC5)CC4)c3C2=O)C(=O)N1 (some centres unmarked) [I-25, 6-((1,6-naphthyridin-2-yl)amino)-4-(cyclopropylamino)-N-((1r,4r)-4-((2-(2-((2-(2,6-dioxopiperidin-3-yl)-1,3-dioxoisoindolin-4-yl)amino)ethoxy)ethyl)carbamoyl)cyclohexyl)nicotinamide]
C (<20% degradation)	O=C1CCC(N2C(=O)c3cccc(NCCCOCCCNC(=O)[C@H]4CC[C@H](NC(=O)c5cnc(Nc6ccc7cnccc7n6)cc5NC5CC5)CC4)c3C2=O)C(=O)N1 (stereo partly drawn) [I-30, 6-((1,6-naphthyridin-2-yl)amino)-4-(cyclopropylamino)-N-((1R,4R)-4-((3-(3-((2-(2,6-dioxopiperidin-3-yl)-1,3-dioxoisoindolin-4-yl)amino)propoxy)propyl)carbamoyl)cyclohexyl)nicotinamide]
C (<20% degradation)	CN(CCOCCOCCNc1cccc2c1C(=O)N(C1CCC(=O)NC1=O)C2=O)C(=O)[C@H]1CC[C@H](NC(=O)c2cnc(Nc3ccc4cnccc4n3)cc2NC2CC2)CC1 (stereo partly drawn) [I-40, 6-((1,6-naphthyridin-2-yl)amino)-4-(cyclopropylamino)-N-((1R,4R)-4-((2-(2-(2-((2-(2,6-dioxopiperidin-3-yl)-1,3-dioxoisoindolin-4-yl)amino)ethoxy)ethoxy)ethyl)(methyl)carbamoyl)cyclohexyl)nicotinamide]
C (<20% degradation)	O=C1CCC(N2C(=O)c3cccc(NCCOCCOCCOCC(=O)N4CCC(NC(=O)c5cnc(Nc6ccc7cnccc7n6)cc5NC5CC5)CC4)c3C2=O)C(=O)N1 (centres unmarked) [I-43, 6-((1,6-naphthyridin-2-yl)amino)-4-(cyclopropylamino)-N-(1-(2-(2-(2-(2-((2-(2,6-dioxopiperidin-3-yl)-1,3-dioxoisoindolin-4-yl)amino)ethoxy)ethoxy)ethoxy)acetyl)piperidin-4-yl)nicotinamide]
